Experiments:
[1] = target: T1, TthMTA1 (residues 126-372)-Tthp2 crystal complex (Tetrahymena thermophila, UniProt Q22GC0); assay: X-ray crystal structure, soaking; assay type: binding; conditions: site in MTA1 MTase domain
T1 construct: gene TTHERM_00704040; N-terminally truncated MTA1 with p2
T1 sequence (Q22GC0 182-428): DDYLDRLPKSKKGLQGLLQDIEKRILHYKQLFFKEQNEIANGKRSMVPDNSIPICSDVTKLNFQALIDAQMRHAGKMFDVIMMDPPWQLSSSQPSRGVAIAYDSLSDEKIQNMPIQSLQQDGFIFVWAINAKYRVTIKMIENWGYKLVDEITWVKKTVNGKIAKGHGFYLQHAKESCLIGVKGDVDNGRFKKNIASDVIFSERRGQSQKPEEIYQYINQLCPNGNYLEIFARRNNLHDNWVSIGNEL

[2] = target: T2, TthMTA1 (residues 126–372)-Tthp1-Tthp2 crystal complex (Tetrahymena thermophila, UniProt Q22GC0); assay: X-ray crystal structure, soaking; assay type: binding; conditions: site in MTA1 MTase domain
T2 construct: gene TTHERM_00704040; N-terminally truncated MTA1 with p1 and p2; p1 degraded in the crystal, only its HTH domain seen
T2 sequence (Q22GC0 182-428): T1 sequence (Q22GC0 182-428)

[3] = target: Tetrahymena thermophila MTA1 (TthMTA1), untagged (Tetrahymena thermophila); assay: SEC; Superdex 200 Increase 10/300; purified proteins mixed at equimolar ratio (1:1, 1:1:1 or 1:1:1:1), 60 min on ice; 20 mM Tris pH 7.5, 300 mM NaCl, 2 mM DTT; peak fractions on SDS-PAGE
[4] = target: T3, TthMTA1-TthMTA9-Tthp2 ternary complex (ITC) (Tetrahymena thermophila, UniProt Q22GC0); assay: isothermal titration calorimetry; conditions: 25 °C, pH 7.5, 300 mM NaCl, no DNA
T3 construct: gene TTHERM_00704040
T3 sequence (Q22GC0 entry or part of it, one chain of several): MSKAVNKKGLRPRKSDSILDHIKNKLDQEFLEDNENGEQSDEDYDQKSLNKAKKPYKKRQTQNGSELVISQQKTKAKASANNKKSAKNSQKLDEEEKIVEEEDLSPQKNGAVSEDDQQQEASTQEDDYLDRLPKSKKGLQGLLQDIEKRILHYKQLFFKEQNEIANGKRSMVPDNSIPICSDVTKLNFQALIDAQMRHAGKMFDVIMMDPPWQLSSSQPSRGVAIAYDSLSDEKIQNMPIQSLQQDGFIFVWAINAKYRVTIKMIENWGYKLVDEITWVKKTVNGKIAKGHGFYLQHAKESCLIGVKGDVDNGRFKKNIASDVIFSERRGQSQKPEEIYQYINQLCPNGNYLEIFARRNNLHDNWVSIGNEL

[5] = target: T4, TthMTA1-Tthp1-Tthp2 ternary complex (ITC) (Tetrahymena thermophila, UniProt Q22GC0); assay: isothermal titration calorimetry; conditions: 25 °C, pH 7.5, 300 mM NaCl, no DNA
T4 construct: gene TTHERM_00704040
T4 sequence (Q22GC0 entry or part of it, one chain of several): as above

[6] = target: T5, TthMTA1-Tthp2 binary complex (ITC) (Tetrahymena thermophila, UniProt Q22GC0); assay: isothermal titration calorimetry; conditions: 25 °C, pH 7.5, 300 mM NaCl, no DNA
T5 construct: gene TTHERM_00704040
T5 sequence (Q22GC0 entry or part of it, one chain of several): as above

[7] = target: T6, TthMTA1c (MTA1-MTA9-p1-p2 quaternary complex) (Tetrahymena thermophila, UniProt Q22GC0); assay: isothermal titration calorimetry; conditions: 25 °C, pH 7.5, 300 mM NaCl, no DNA
T6 construct: gene TTHERM_00704040
T6 sequence (Q22GC0 entry or part of it, one chain of several): as above

[8] = target: T7, TthMTA1-Ptep2 (ITC) (Tetrahymena thermophila, UniProt Q22GC0); assay: isothermal titration calorimetry; conditions: 25 °C, pH 7.5, 300 mM NaCl, no DNA
T7 construct: gene TTHERM_00704040
T7 sequence (Q22GC0 57-428): as the sequence (Q22GC0 entry or part of it, one chain of several) above

[9] = target: T8, GST-MTA1 (residues 171-372); assay: GST pull-down; conditions: chain shown with the change;; parent: 100
T8 chain: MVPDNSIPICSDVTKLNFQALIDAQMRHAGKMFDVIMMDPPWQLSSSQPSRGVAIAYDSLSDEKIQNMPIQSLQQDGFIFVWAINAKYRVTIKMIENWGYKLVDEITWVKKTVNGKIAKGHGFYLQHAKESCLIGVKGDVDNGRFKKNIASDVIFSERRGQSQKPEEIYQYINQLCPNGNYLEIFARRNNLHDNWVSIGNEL

[10] = target: T9, His6GST-Tthp2; assay: GST pull-down; conditions: chain shown with the change;; parent: 100
T9 chain: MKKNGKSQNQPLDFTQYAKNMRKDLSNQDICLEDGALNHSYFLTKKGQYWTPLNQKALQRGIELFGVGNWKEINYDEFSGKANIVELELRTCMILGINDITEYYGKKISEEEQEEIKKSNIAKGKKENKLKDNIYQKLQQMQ

Q: `Nc1ncnc2c1ncn2[C@@H]1O[C@H](CSCC[C@H](N)C(=O)O)[C@@H](O)[C@H]1O` [SAH] was tested. Which “X-ray crystal structure, soaking” value ([1]; 1 mM SAH soak) did it give?
A: further confirmed by our SAM- and SAH-bound MTA1-p2 structures

Q: And the “X-ray crystal structure, soaking” value ([2]; 3.0 Å, 1 mM SAH soak)?
A: the SAH product-bound MTA1-p1-p2 complex by soaking approach

Q: With “Tetrahymena thermophila MTA9 (TthMTA9), untagged (natural protein)” as the molecule, how does the stoichiometry N [3] read?
A: 1

Q: Which Kd [4] does the source give for `C[S+](CC[C@H](N)C(=O)O)C[C@H]1O[C@@H](n2cnc3c(N)ncnc32)[C@H](O)[C@@H]1O` (stereo partly drawn) [SAM] here?
A: 3.64 ± 0.56 µM

Q: And the Kd [5]?
A: 14.8 ± 2.71 µM

Q: And the “X-ray crystal structure, soaking” value ([1]; 1 mM SAM soak)?
A: further confirmed by our SAM- and SAH-bound MTA1-p2 structures

Q: What about the Kd [6] of the same molecule?
A: 44.6 ± 3.4 µM

Q: What about the “X-ray crystal structure, soaking” value ([2]; 3.4 Å, 1 mM SAM soak) of the same molecule?
A: SAM donor-bound MTA1-p1-p2 complex

Q: What about the Kd [7] of the same molecule?
A: 2.4 ± 0.26 µM

Q: And the Kd [8]?
A: 67.8 ± 5.45 µM

B1: Paramecium tetraurelia MTA9 (PteMTA9), untagged K218A (protein)
chain: MGKNQRESLRMRLRYNEPGSENKRINYFKLNQGYDITEDDSEYMDEQDSYKAFKKIRKYKTKSKEDKVTCDNLEVLLQWKGSINCQSYETDQKKIVVLKKILGTDLSQYAKGVQGIFIDNLFKKDLKNLDISKKLISNGILFIWSDKSLINEILETMENKGFTYIENLVVVQLSLEQALEELNKHMKIEQTEDAVLDNLDFLQQKVQVKDLILHRPSAVLNQSKQVLIMFRKFDEQKSQLELRHQRTPDVLFDIVNNGKSCLKTKEYIYQTIETLLPKSQLMEIFAQKDQPRKGWISVCENK
Q: How did the percent of parent [9] turn out when B1 was run?
A: 99%

B2: Tetrahymena thermophila MTA1 (TthMTA1), untagged R358A (protein)
chain: MSKAVNKKGLRPRKSDSILDHIKNKLDQEFLEDNENGEQSDEDYDQKSLNKAKKPYKKRQTQNGSELVISQQKTKAKASANNKKSAKNSQKLDEEEKIVEEEDLSPQKNGAVSEDDQQQEASTQEDDYLDRLPKSKKGLQGLLQDIEKRILHYKQLFFKEQNEIANGKRSMVPDNSIPICSDVTKLNFQALIDAQMRHAGKMFDVIMMDPPWQLSSSQPSRGVAIAYDSLSDEKIQNMPIQSLQQDGFIFVWAINAKYRVTIKMIENWGYKLVDEITWVKKTVNGKIAKGHGFYLQHAKESCLIGVKGDVDNGRFKKNIASDVIFSERRGQSQKPEEIYQYINQLCPNGNYLEIFARANNLHDNWVSIGNEL
Q: For B2, which percent of parent [10] is on record?
A: 4%
